One molecule from patent US8795222B2, “Device and method for treatment of surface infections with nitric oxide” (Pulmonox Technologies Corp., priority 2000, dated 2014) can be followed below.

In data set [1] the test system is MRSA. Briefly: Bacteriocidal time study, 200 ppm gNO, saline suspension. The format is cell-based, Methicillin Resistant S. aureus. How it is done:
(§1) Following the dose and time ranging studies, a series of experiments were performed to determine the time required to effectively induce a bacteriocidal effect with 200 parts per million of gNO, a concentration just above the dose used in the dose-ranging study, on a representative collection of drug resistant gram-positive and gram-negative strains of bacteria associated with clinical infection. A successful bacteriocidal effect was defined as a decrease in bacteria greater than 3 log10 cfu/ml. Further, C. albicans, Methicillin Resistant S. aureus (MRSA), a particularly resistant strain of P. aeruginosa from a cystic fibrosis patient, Group B Streptococcus, and M. smegmatis were also included to see if yeast, multi-drug resistant strains of bacteria, and actinomycetes have a similar response. The drug-resistant bacteria represent a variety of pathogens that contribute to both respiratory and wound infections.
(§2) For these experiments, saline was selected as a suspension media because it would not mask the direct effect of gNO as a bacteriocidal, whereas fully supplemented growth medium might introduce external variables (e.g., buffer or react with gNO). Other media might also provide metabolites and replenish nutrients that produce enzymes that protect bacteria from oxidative and nitrosative damage, thereby masking the effect of gNO. […] In saline, the colonies were static but remained viable. This is similar to the approach of Webert and Jean's use of animal models. Webert K E, et al (2000), Effects of inhaled nitric oxide in a rat model of Pseudomonas aeruginosa pneumonia, Crit. Care Med, 28(7):2397-2405 and Jean D, et al., (2002) Beneficial effects of nitric oxide inhalation on pulmonary bacterial clearance, Critical Care Medicine. 30(2):442-7.
(§3) The latent period was then followed by an abrupt death of all cells. Gram negative and gram positive bacteria, antibiotic resistant bacterial strains, yeast and mycobacteria were all susceptible to 200 ppm gNO. Of importance, is the observation that the two drug resistant bacteria strains were also susceptible.

In data set [2] the test system is Group B Streptococci. Described as above. The class given is cell-based, Group B Streptococcus. How it is done:
as §1, §2, §3

Data set [3] is described as follows: Full thickness infected wound model, toxicity, serum NOx and methemoglobin. The format is in vivo, rabbits. From the text: In vivo studies in animal models have further shown the beneficial effects of nitric oxide gas. In an animal model, full-thickness cutaneous wounds (Set A: four rabbits with eight 8.0 mm punch biopsies & Set B: 4 rabbits with two 50×15 mm wounds) were made on each side of dorsal midline and infected with equal volume of Staphylococcus aureus suspension on day zero. On day one, treated groups in A and B were respectively exposed to 200 and 400 ppm gNO for total of three days. Set A was exposed for two 4-hour sessions, interrupted by 1-hour of rest, inside a specialized restraining exposure chamber. A 24-hour continuous delivery model was used for animals in Set B by design of a specialized wound patch. Control groups were only exposed to medical grade air with corresponding flow rate. Four random sample punch biopsies (8.0 mm) were collected on post wounding days 3 and analyzed for bacterial content. Another four punch biopsies from both wound and normal skin tissue were collected for fibroblast viability analysis and toxic effects of gNO.
On average well over 10 fold drop (p<0.05) in bacterial content is observed in comparison between control and treated groups.
FIG. 12 indicates the level of methemoglobin (MetHb) in animal's blood following 6 day intermittent exposure to 200 ppm gNO.

The test system of data set [4] is collagen mRNA. Briefly: mRNA expression after gNO exposure. The format is cell-based. The source says: Rather than applying exogenous collagenase for enzymatic debridement of necrotic tissue, exposing a wound with necrotic tissue to exogenous NO gas to upregulate endogenous collagenase may be more beneficial. When endogenous collagenase is released by the cell, it automatically releases TIMP's (tissue inhibitor of metalloproteinase). This ensures that the matrix degradation is coordinated and allows the establishment of sharp geographical boundaries of collagenolytic activity and the protection of areas of connective tissue from the activity of the enzyme. In contrast, use of exogenous collagenase material to debride a wound confers no protection to specific areas of the wound as it is active on every cell that comes in contact with it whether or not the effect is desired.
Preferably, after the exposure of the wound to high concentration of nitric oxide gas for a first treatment period (e.g., 5-8 hours per day), the necrotic tissue may be mechanically removed easily and the concentration of nitric oxide gas can be decreased for a second treatment period. The low concentration of nitric oxide gas (e.g., at 5-20 ppm) delivered for the second treatment period may upregulate the expression of collagen mRNA leading to synthesis of new collagen to aid in the closure of the wound. […] The second treatment period may be for a period 7-16 hours per day. […]

For data set [5], the system named is Fibroblast cells. Kind of data set: Fibroblast viability study in gNO chamber. The class given is cell-based, human. Here is the method: Fibroblast cells obtained from adult patients undergoing elective reconstructive surgery were cultured in Dulbeco's Modified Eagle's Medium (DMEM), supplemented with 10% fetal bovine serum (FBS) and antibiotic-antimycotic preparation and divided into ten 25 cm^2 vented culture flasks (COSTAR). […] The NO exposure chamber was validated prior to the study to eliminate extraneous variables and ensure optimal conditions for fibroblast cell growth. Another four flasks (control group) were placed inside conventional culture incubator and exposed only to ambient humidified air at 37° C. Two flasks were separately harvested and counted as the number of cells at zero time. Following the treatment, fibroblast cells were harvested and evaluated for morphology, cell count, capacity to proliferate and medium pH.
Cells under gNO appeared healthy and attached to the culture plates.
Capability of cells to reattach to the culture plates within a specified time limit is commonly used as an indication of viability of cells in culture. Both the control and treated groups show a 70% attachment capacity within 1 hour of culturing.

Consider `[N]=O` [gNO, nitric oxide], for which the LD100 in data set [1] amounted to 5 h; in data set [2], 2 h. Also, the figures for the “Latent Period*” value in data set [1] and in data set [2] were 3 h and 1 h, respectively. Besides, the figures for the “−2.5 Log10” value in data set [1] (time to −2.5 log10 cfu/ml) and in data set [2] (time to −2.5 log10 cfu/ml) were 4.2 hrs and 1.5 hrs, respectively. In data set [3] (200 ppm gNO intermittently for 6 days), the “blood serum NOx (NO2 and NO3) level” value is listed as “None of the samples show an increased level of NOx”. In addition, the “toxic effect or damage in the skin of treated animals” value in data set [3] (200 ppm gNO, compared with control) was “no toxic effect or damage were observed”. The “blood methemoglobin (MetHb) level” value in data set [3] (6 day intermittent exposure to 200 ppm gNO, compared with air control) is “did not show an increase level of MetHB”. For the same molecule, in data set [4] (fibroblast exposed to 5 ppm of NO), the “collagen mRNA expression” value was “increased collagen mRNA expression”. Besides, the collagen expression result in data set [4] (high concentration, 200 ppm gNO, 24 hours and 48 hours) was “possible inhibition of collagen expression”. Also, in data set [5] (160 ppm gNO, within 1 hour of culturing, control the same), the attachment capacity was determined as 70%. Further, the “proliferation of fibroblast cells” value in data set [5] (200 ppm NO, compared with control) is “positive effect of increasing proliferation”. The “harmful effects on the fibroblast” value in data set [5] (around 200 ppm gNO, 24 and 48 hours) is given as “did not have harmful effects”. Moreover, in data set [5] (gNO concentrations less than 200 ppm continuously for 48 hours), the “toxic effect, morphology and attachment” value is reported as “No toxic effect”.
